“And” between values parts separate entries of the source, which are not always exact repeats. Identical values can stand only once. “Also recorded” adds a separate entry of the source.
Key:
clinical = details: for CL/F: DHA CL/F; for fraction unbound: DHA FF (free fraction); for Tmax: DHA Tmax; for half-life: DHA T½; for Vd/F: DHA Vd/F
Method: The four tablets were given orally with 240 mL water under medical supervision. A catheter was inserted into a forearm vein for pharmacokinetic sample collection and flushed after each blood draw with saline solution. […] Blood for malaria smears were taken by finger prick at pre-dose and at 12, 24, 30, 36, 42 and 48 hours post-dose. Malaria smears were also performed on days 7, 14 and 28.
The persistence of malaria infection and adverse events were tracked for 28 days after SP administration. Babies born from the pregnant women cohort were followed until one year of age and development assessed.
The reconstituted extracts were chromatographed isocratically and the compounds detected and quantified by mass spectroscopy.
Concentrations below the lower limit of quantification were assigned a value of zero.
The ratio of the AUC during pregnancy to the AUC at postpartum (after log transformation) was considered a measure of the impact of pregnancy on systemic exposure. […] The "no effect" interval was selected based on the dose-ranging study by Angus and coworkers. […] Statistical analyses were performed using SAS/STAT software, version 9.2 (SAS Institute, Inc., Cary, NC, 2008). […] Spearman correlations were used to look for associations among the pregnant and control population. All p-values were 2-sided.

Plasmodium falciparum [1] = experiment: Pharmacodynamics of AS: parasitaemia on malaria smears after dosing; type: in vivo; details: for Parasitaemic - n (%) / Parasite density (where > 0): 12 hours after 200 mg oral AS
Method: To determine if women met the eligibility criteria, a complete medical history and physical examination was performed by a study physician; sociodemographic data was collected by a study nurse. Haematocrit was measured using a microhaematocrit centrifuge (Hawksley Haematospin 1400, Hawksley & Sons, Ltd, UK). Thick and thin blood films were stained with Giemsa and then read to determine parasite species and the density of P. falciparum asexual stages. Parasite density, based on examination of at least 200 high-power microscope fields, was calculated as (# trophozoites/#white blood cells)*6000. Human Immunodeficiency Virus (HIV) serology was determined using the Determine 1/2 HIV Test Kit (Inverness Medical Professional Diagnostics, Princeton, NJ). Liver function was assessed by measuring aspartate aminotransferase (AST) and alanine aminotransferase (ALT) in plasmaPiccolo Portable Chemistry Analyser, Abaxis, USA). Alpha-1-Acid glycoprotein was determined in serum samples using radial immunodiffusion (Kent Laboratories, Bellingham, WA, USA). […]

[2] = set-up: species or system human; details: in vivo
Method: To determine if women met the eligibility criteria, a complete medical history and physical examination was performed by a study physician; sociodemographic data was collected by a study nurse. Haematocrit was measured using a microhaematocrit centrifuge (Hawksley Haematospin 1400, Hawksley & Sons, Ltd, UK). Thick and thin blood films were stained with Giemsa and then read to determine parasite species and the density of P. falciparum asexual stages. […] Human Immunodeficiency Virus (HIV) serology was determined using the Determine 1/2 HIV Test Kit (Inverness Medical Professional Diagnostics, Princeton, NJ). Liver function was assessed by measuring aspartate aminotransferase (AST) and alanine aminotransferase (ALT) in plasmaPiccolo Portable Chemistry Analyser, Abaxis, USA). Alpha-1-Acid glycoprotein was determined in serum samples using radial immunodiffusion (Kent Laboratories, Bellingham, WA, USA).

Plasmodium falciparum [3] = details: sigmoid Emax pharmacodynamic model of PCT; cited from earlier work
[4] = artesunate 4 mg/kg with Malarone, final day of three day course; second and third trimester pregnant women, Thailand; 90% range 0.9-60.7; cited from earlier work
[5] = female, human, plasma, po, 200 mg, 200 mg oral AS, ante-partum pregnant cases, median [range]
[6] = female, human, plasma, po, 200 mg, 200 mg oral AS, non-pregnant controls, median [range]
[7] = female, human, plasma, po, 200 mg, 200 mg oral AS, post-partum (3 months), median [range]

For `C[C@H]1[C@H](OC(=O)CCC(=O)O)O[C@@H]2O[C@@]3(C)CC[C@H]4[C@H](C)CC[C@@H]1[C@@]24OO3` [AS, artesunate], which “range of AS AUCs among the subjects” value (clinical; female, human, in vivo, po, 200 mg) is on record?
Its value is “more than 17 fold”.

What about the AUC (clinical; female, human, in vivo, po, 200 mg, median AS AUC) of the same compound?
Its AUC is 205 ng·h/mL.

What about the “aparasitaemic at 12 hours among those parasitaemic at t = 0” value (Plasmodium falciparum [1]; 200 mg oral AS, 13 of the 14 non-pregnant controls) of the same compound?
Its value is 93%.

And the “aparasitaemic at 12 hrs among those parasitaemic at t = 0” value (Plasmodium falciparum [1]; 200 mg oral AS, 21 of the 24 pregnant women)?
The value was 87.5%.

And the “Parasitaemic - n (%)” value (Plasmodium falciparum [1]; all pregnant cases, N 26)?
The value was 3 (11.5).

What about the “Parasite density (where > 0)” value (Plasmodium falciparum [1]; all pregnant cases, median (interquartile range)) of the same compound?
The value was 87 (44 - 286) parasites/μL.

What about the “Parasitaemic - n (%)” value (Plasmodium falciparum [1]; non-pregnant controls, N 25) of the same compound?
Its value is 1 (4.0).

What about the “Parasite density (where > 0)” value (Plasmodium falciparum [1]; non-pregnant controls, median) of the same compound?
The value was 24 -- parasites/μL.

What about the “Parasitaemic - n (%)” value (Plasmodium falciparum [1]; pregnant cases Window 1 (22-26 wks GA), N 13) of the same compound?
Its value is 3 (23.1).

And the “Parasite density (where > 0)” value (Plasmodium falciparum [1]; pregnant cases Window 1, median (interquartile range))?
Its value is 87 (44 - 286) parasites/μL.

What about the “Parasitaemic - n (%)” value (Plasmodium falciparum [1]; pregnant cases Window 2 (32-36 wks GA), N 13) of the same compound?
The value was 0 (0).

And the “efficacy (in words)” value (Plasmodium falciparum [1]; single 200 mg oral dose of AS, second and third trimester pregnant women)?
Its value is “effective; also recorded: rapid clearance of parasitaemia”.

What about the “infant development at one year of age” value [2] of the same compound?
Its value is “normal physical and neurological development”.

And the pregnancy outcome [2]?
The pregnancy outcome was “singleton live births”.

What about the Hill slope coefficient (Plasmodium falciparum [3]) of the same compound?
The Hill slope coefficient was 10.

With `C[C@H]1[C@@H](O)O[C@@H]2O[C@@]3(C)CC[C@H]4[C@H](C)CC[C@@H]1[C@@]24OO3` [DHA, dihydroartemisinin] as the compound, how does the “median free AUC for DHA in pregnant women as percentage of non-pregnant controls” value (clinical; 200 mg oral AS) read?
The value was 79%.

And the “median total AUC for DHA in pregnant women as percentage of non-pregnant controls” value (clinical; 200 mg oral AS)?
Its value is 62%.

And the “DHA AUCall” value (clinical; 200 mg oral AS, ante-partum pregnant cases, median [range])?
The value was 1730.5 [1034.7 - 4085.5] ng*h/mL.

And the “DHA T½” value (clinical; 200 mg oral AS, non-pregnant controls, median [range])?
The value was 1.41 [0.86 - 6.55] h.

And the AUC (clinical; female, human, plasma, po, 200 mg, DHA AUCall, 200 mg oral AS, ante-partum pregnant cases, median [range])?
Its AUC is 1730 ng·h/mL.

What about the AUC (clinical; female, human, plasma, po, 200 mg, DHA AUCall, 200 mg oral AS, non-pregnant controls, median [range]) of the same compound?
Its AUC is 2790 ng·h/mL.

And the AUC (clinical; female, human, plasma, po, 200 mg, DHA AUCall, 200 mg oral AS, post-partum (3 months), median [range])?
The AUC was 2120 ng·h/mL.

And the CL/F (clinical; [5])?
The CL/F was 23.2 mL/min/kg.

What about the CL/F (clinical; [6]) of the same compound?
Its CL/F is 17.8 mL/min/kg.

What about the CL/F (clinical; [7]) of the same compound?
The CL/F was 21 mL/min/kg.

And the Cmax (clinical; female, human, plasma, po, 200 mg, DHA Cmax, 200 mg oral AS, ante-partum pregnant cases, median [range])?
Its Cmax is 905 ng/mL.

And the Cmax (clinical; female, human, plasma, po, 200 mg, DHA Cmax, 200 mg oral AS, non-pregnant controls, median [range])?
Its Cmax is 1280 ng/mL.

What about the Cmax (clinical; female, human, plasma, po, 200 mg, DHA Cmax, 200 mg oral AS, post-partum (3 months), median [range]) of the same compound?
The Cmax was 980 ng/mL.

And the fraction unbound (clinical; [5])?
The fraction unbound was 0.21.

What about the fraction unbound (clinical; [6]) of the same compound?
Its fraction unbound is 0.18.

And the fraction unbound (clinical; [7])?
Its fraction unbound is 0.19.

And the Tmax (clinical; [5])?
Its Tmax is 1.5 h.

And the Tmax (clinical; [6])?
Its Tmax is 1.52 h.

And the Tmax (clinical; [7])?
The Tmax was 1.5 h.

And the half-life (clinical; [5])?
The half-life was 1.28 h.

And the half-life (clinical; [7])?
The half-life was 1.63 h.

And the Vd/F (clinical; [5])?
Its Vd/F is 157 L and 2.84 L/kg.

And the Vd/F (clinical; [6])?
Its Vd/F is 128 L and 2.45 L/kg.

What about the Vd/F (clinical; [7]) of the same compound?
The Vd/F was 158 L and 3 L/kg.

And the Cmax (clinical; female, human, plasma, po, 200 mg, median DHA Cmax, 200 mg oral AS, non-pregnant control group)?
The Cmax was 1280 ng/mL.

And the Cmax (clinical; female, human, plasma, po, 200 mg, median DHA Cmax, 200 mg oral AS, pregnant group)?
Its Cmax is 905 ng/mL.

What about the “median DHA Vd/F” value [4] of the same compound?
The value was 3.4 L/kg.

— publication PMC3056842 (Malaria Journal, 2011)
